Data reported in ChEMBL document CHEMBL4673219, “Novel 5,6-disubstituted pyrrolo[2,3-d]pyrimidine derivatives as broad spectrum antiproliferative agents: Synthesis, cell based assays, kinase profile and molecular docking study” (Bioorg Med Chem, 2018).

Legend:
SK-BR-3 [1] = test: Antiproliferative activity against human SK-BR-3 cells assessed as cell growth inhibition at 10 uM measured after 72 hrs by MTT assay relative to control; type: functional; settings: read-out: GI
MCF7 [2] = test: Antiproliferative activity against human MCF7 cells assessed as cell growth inhibition at 10 uM measured after 72 hrs by MTT assay relative to control; type: functional; settings: read-out: GI
HCT-116 [3] = test: Antiproliferative activity against human HCT-116 cells assessed as cell growth inhibition at 10 uM measured after 72 hrs by MTT assay relative to control; type: functional; settings: read-out: GI
SK-BR-3 [4] = test: Antiproliferative activity against human SK-BR-3 cells assessed as cell growth inhibition measured after 72 hrs by MTT assay; type: functional
HCT-116 [5] = test: Antiproliferative activity against human HCT-116 cells assessed as cell growth inhibition measured after 72 hrs by MTT assay; type: functional
MCF7 [6] = test: Antiproliferative activity against human MCF7 cells assessed as cell growth inhibition measured after 72 hrs by MTT assay; type: functional
[7] = target: Fibroblast growth factor receptor 2 (Homo sapiens) (UniProt P21802); test: Inhibition of human FGFR2 at 10 uM using myelin basic protein as substrate incubated for 40 mins in presence of [gamma33P]ATP by scintillation counting method relative to control
Fibroblast growth factor receptor 2 (Homo sapiens), sequence (P21802 22-821 limits assumed): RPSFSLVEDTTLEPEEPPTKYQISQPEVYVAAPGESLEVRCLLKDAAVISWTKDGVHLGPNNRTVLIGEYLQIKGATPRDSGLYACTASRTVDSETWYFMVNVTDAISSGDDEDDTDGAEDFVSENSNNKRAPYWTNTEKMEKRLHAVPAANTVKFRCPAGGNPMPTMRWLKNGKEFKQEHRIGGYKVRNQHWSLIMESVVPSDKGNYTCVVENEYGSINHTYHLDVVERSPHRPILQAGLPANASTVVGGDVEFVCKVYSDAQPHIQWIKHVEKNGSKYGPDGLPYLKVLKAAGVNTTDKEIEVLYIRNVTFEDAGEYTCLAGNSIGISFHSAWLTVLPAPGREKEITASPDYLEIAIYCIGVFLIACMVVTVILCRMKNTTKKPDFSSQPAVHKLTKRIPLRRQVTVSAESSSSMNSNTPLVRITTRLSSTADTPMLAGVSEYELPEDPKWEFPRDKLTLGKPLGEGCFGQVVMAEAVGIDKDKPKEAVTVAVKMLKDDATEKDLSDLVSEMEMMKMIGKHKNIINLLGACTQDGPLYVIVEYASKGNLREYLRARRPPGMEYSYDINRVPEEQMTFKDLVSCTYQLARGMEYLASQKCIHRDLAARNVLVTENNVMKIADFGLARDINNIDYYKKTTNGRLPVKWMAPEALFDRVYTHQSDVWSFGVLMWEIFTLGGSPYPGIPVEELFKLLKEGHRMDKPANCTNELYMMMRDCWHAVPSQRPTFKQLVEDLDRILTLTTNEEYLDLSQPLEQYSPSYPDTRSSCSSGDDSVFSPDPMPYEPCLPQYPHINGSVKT

[8] = target: Fibroblast growth factor receptor 1 (Homo sapiens) (UniProt P11362); test: Inhibition of human FGFR1 at 10 uM using myelin basic protein as substrate incubated for 40 mins in presence of [gamma33P]ATP by scintillation counting method relative to control
Fibroblast growth factor receptor 1 (Homo sapiens), sequence (P11362 22-822 limits assumed): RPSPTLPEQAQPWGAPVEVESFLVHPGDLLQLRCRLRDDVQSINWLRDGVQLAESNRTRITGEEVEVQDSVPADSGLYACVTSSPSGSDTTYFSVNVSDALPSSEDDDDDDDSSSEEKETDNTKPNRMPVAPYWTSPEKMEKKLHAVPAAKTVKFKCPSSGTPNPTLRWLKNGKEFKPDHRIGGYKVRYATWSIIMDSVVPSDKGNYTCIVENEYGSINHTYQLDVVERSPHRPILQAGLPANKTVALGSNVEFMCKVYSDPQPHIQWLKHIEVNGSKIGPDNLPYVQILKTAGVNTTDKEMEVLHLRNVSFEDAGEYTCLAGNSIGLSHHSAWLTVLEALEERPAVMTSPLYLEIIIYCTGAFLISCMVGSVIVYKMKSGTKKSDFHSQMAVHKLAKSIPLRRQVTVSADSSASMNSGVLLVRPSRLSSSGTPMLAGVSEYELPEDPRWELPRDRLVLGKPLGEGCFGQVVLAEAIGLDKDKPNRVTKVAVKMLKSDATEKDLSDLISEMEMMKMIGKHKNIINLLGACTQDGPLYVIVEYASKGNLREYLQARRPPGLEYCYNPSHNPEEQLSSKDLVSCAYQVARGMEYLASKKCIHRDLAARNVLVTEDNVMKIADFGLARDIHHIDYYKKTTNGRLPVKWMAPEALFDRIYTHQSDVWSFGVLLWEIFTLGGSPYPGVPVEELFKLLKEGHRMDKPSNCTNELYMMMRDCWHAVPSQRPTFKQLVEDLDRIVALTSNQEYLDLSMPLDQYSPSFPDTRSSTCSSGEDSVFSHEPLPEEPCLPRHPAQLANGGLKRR

[9] = target: High affinity nerve growth factor receptor (Homo sapiens, UniProt P04629); test: Inhibition of human Trk-A using myelin basic protein as substrate incubated for 40 mins in presence of [gamma33P]ATP by scintillation counting method
High affinity nerve growth factor receptor, sequence (P04629 whole entry): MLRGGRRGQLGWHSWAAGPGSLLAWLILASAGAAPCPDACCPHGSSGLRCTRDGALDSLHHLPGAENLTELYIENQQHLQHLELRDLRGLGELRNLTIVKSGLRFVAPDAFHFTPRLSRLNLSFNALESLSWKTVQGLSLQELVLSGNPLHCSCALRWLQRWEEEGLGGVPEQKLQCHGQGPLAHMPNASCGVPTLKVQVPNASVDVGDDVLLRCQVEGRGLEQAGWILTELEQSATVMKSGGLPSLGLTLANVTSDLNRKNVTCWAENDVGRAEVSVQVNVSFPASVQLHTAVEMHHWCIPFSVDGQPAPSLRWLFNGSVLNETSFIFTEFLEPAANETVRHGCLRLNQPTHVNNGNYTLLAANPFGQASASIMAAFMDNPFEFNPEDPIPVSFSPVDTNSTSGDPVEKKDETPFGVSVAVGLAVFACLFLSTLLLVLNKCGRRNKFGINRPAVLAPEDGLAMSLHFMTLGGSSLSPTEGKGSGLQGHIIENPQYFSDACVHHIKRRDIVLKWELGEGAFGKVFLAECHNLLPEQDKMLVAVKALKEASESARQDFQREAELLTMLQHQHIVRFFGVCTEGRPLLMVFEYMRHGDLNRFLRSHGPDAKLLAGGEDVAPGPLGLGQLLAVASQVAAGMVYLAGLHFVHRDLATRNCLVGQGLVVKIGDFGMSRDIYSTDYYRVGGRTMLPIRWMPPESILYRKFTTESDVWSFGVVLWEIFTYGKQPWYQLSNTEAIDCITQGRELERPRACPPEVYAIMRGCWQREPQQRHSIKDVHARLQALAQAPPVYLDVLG

Molecule `CCCCCCCC(=O)Nc1nc2[nH]cc(CN3CCC(NC(=O)OC(C)(C)C)CC3)c2c(=O)[nH]1` has an inhibition of growth at 10 µM (SK-BR-3 [1]) of 59.3%, an inhibition of growth at 10 µM (MCF7 [2]) of 36.5% and an inhibition of growth at 10 µM (HCT-116 [3]) of 50.3%.
With `Nc1nc2[nH]c(CN3CCN(Cc4ccc(F)cc4)CC3)c(CN3CCN(Cc4ccc(F)cc4)CC3)c2c(=O)[nH]1` the inhibition of growth at 10 µM (SK-BR-3 [1]) was 23.2%, the inhibition of growth at 10 µM (MCF7 [2]) was 18.4% and the inhibition of growth at 10 µM (HCT-116 [3]) was 23%.
For `CCCCCCCC(=O)Nc1nc2[nH]cc(CN3CCN(C(C)=O)CC3)c2c(=O)[nH]1`, the inhibition of growth at 10 µM (SK-BR-3 [1]) was 40.2%, the inhibition of growth at 10 µM (MCF7 [2]) was 35.8% and the inhibition of growth at 10 µM (HCT-116 [3]) was 43.8%.
`Nc1nc2[nH]cc(CN3CCN(c4ccccc4)CC3)c2c(=O)[nH]1` showed an inhibition of growth at 10 µM (SK-BR-3 [1]) of 30.7%, an inhibition of growth at 10 µM (MCF7 [2]) of 49.7% and an inhibition of growth at 10 µM (HCT-116 [3]) of 49%.
`Nc1nc2[nH]c(CN3CCN(Cc4cccc(F)c4)CC3)c(CN3CCN(Cc4cccc(F)c4)CC3)c2c(=O)[nH]1` gave an inhibition of growth at 10 µM (SK-BR-3 [1]) of 10.5%, an inhibition of growth at 10 µM (MCF7 [2]) of 16.1% and an inhibition of growth at 10 µM (HCT-116 [3]) of 13.6%.
With `CCCCCCCC(=O)Nc1nc2[nH]cc(CN3CCN(c4ccccc4C#N)CC3)c2c(=O)[nH]1` the GI50 (SK-BR-3 [4]) was 0.97 µM, the inhibition of growth at 10 µM (SK-BR-3 [1]) was 84.6% and the inhibition of growth at 10 µM (MCF7 [2]) was 59.2%. The inhibition of growth at 10 µM (HCT-116 [3]) was 79.5% and the GI50 (HCT-116 [5]) was 1.46 µM.
In the case of `CCCCCCCC(=O)Nc1nc2[nH]cc(CN3CCN(c4ccccc4)CC3)c2c(=O)[nH]1`, the GI50 (SK-BR-3 [4]) is reported as 0.63 µM, the inhibition of growth at 10 µM (SK-BR-3 [1]) is reported as 67.6% and the inhibition of growth at 10 µM (MCF7 [2]) is reported as 50.3%. For the same molecule, the inhibition of growth at 10 µM (HCT-116 [3]) was 73.9% and the GI50 (HCT-116 [5]) was 3.99 µM.
`CC(=O)N1CCN(Cc2c[nH]c3nc(N)[nH]c(=O)c23)CC1` was tested, and the inhibition of growth at 10 µM (SK-BR-3 [1]) was 24.2%, the inhibition of growth at 10 µM (MCF7 [2]) was 16.2% and the inhibition of growth at 10 µM (HCT-116 [3]) was 13.8%.
With `Nc1nc2[nH]cc(CN3CCN(Cc4cccc(F)c4)CC3)c2c(=O)[nH]1` the inhibition of growth at 10 µM (SK-BR-3 [1]) was 16.8%, the inhibition of growth at 10 µM (MCF7 [2]) was 20.6% and the inhibition of growth at 10 µM (HCT-116 [3]) was 31.1%.
With `Nc1nc2[nH]cc(CN3CCN(c4cccc(Cl)c4)CC3)c2c(=O)[nH]1` the GI50 (SK-BR-3 [4]) was 8.28 µM, the inhibition of growth at 10 µM (SK-BR-3 [1]) was 67.5% and the inhibition of growth at 10 µM (MCF7 [2]) was 54.2%. It also gave an inhibition of growth at 10 µM (HCT-116 [3]) of 79.3% and a GI50 (HCT-116 [5]) of 7.66 µM.
`N#Cc1ccccc1N1CCN(Cc2c[nH]c3nc(N)[nH]c(=O)c23)CC1` gave a GI50 (SK-BR-3 [4]) of 23.7 µM, an inhibition of growth at 10 µM (SK-BR-3 [1]) of 73.8% and an inhibition of growth at 10 µM (MCF7 [2]) of 51.1%. It also gave an inhibition of growth at 10 µM (HCT-116 [3]) of 72% and a GI50 (HCT-116 [5]) of 8.37 µM.
`CCCCCCCC(=O)Nc1nc2[nH]c(CN3CCN(Cc4ccccc4)CC3)c(CN3CCN(Cc4ccccc4)CC3)c2c(=O)[nH]1` showed a GI50 (MCF7 [6]) of 2.78 µM, a GI50 (SK-BR-3 [4]) of 3.64 µM and an inhibition of growth at 10 µM (SK-BR-3 [1]) of 93.4%. For the same molecule, the inhibition [7] was 24%, the inhibition of growth at 10 µM (MCF7 [2]) was 96.6% and the inhibition [8] was 47.1%. For the same molecule, the IC50 [9] was 2.29 µM, the inhibition of growth at 10 µM (HCT-116 [3]) was 97% and the GI50 (HCT-116 [5]) was 4.09 µM.
Molecule `COc1ccc(N2CCN(Cc3c[nH]c4nc(N)[nH]c(=O)c34)CC2)cc1` has a GI50 (SK-BR-3 [4]) of 11.2 µM, an inhibition of growth at 10 µM (SK-BR-3 [1]) of 57.5% and an inhibition of growth at 10 µM (MCF7 [2]) of 51.7%. It also gave an inhibition of growth at 10 µM (HCT-116 [3]) of 69.2%.
Molecule `CCCCCCCC(=O)Nc1nc2[nH]cc(CN3CCN(CCN4CCOCC4)CC3)c2c(=O)[nH]1` has an inhibition of growth at 10 µM (SK-BR-3 [1]) of 90.4%, an inhibition of growth at 10 µM (MCF7 [2]) of 88.6% and an inhibition of growth at 10 µM (HCT-116 [3]) of 93%.
Work on `CCCCCCCC(=O)Nc1nc2[nH]cc(CN3CCN(c4ccc([N+](=O)[O-])cc4)CC3)c2c(=O)[nH]1` yielded a GI50 (SK-BR-3 [4]) of 8.04 µM, an inhibition of growth at 10 µM (SK-BR-3 [1]) of 61.6% and an inhibition of growth at 10 µM (MCF7 [2]) of 40.4%. The inhibition of growth at 10 µM (HCT-116 [3]) was 68.5%.
With `CCCCCCCC(=O)Nc1nc2[nH]cc(CN3CCN(C)CC3)c2c(=O)[nH]1` the inhibition of growth at 10 µM (SK-BR-3 [1]) was 50.4%, the inhibition of growth at 10 µM (MCF7 [2]) was 59.6% and the inhibition of growth at 10 µM (HCT-116 [3]) was 51%.
`CCCCCCCC(=O)Nc1nc2[nH]cc(CN3CCN(CCO)CC3)c2c(=O)[nH]1` gave an inhibition of growth at 10 µM (SK-BR-3 [1]) of 62.2%, an inhibition of growth at 10 µM (MCF7 [2]) of 42% and an inhibition of growth at 10 µM (HCT-116 [3]) of 67.3%.
`Nc1nc2[nH]c(CN3CCN(Cc4ccccc4)CC3)c(CN3CCN(Cc4ccccc4)CC3)c2c(=O)[nH]1` showed an inhibition of growth at 10 µM (SK-BR-3 [1]) of 15.7%, an inhibition of growth at 10 µM (MCF7 [2]) of 21.2% and an inhibition of growth at 10 µM (HCT-116 [3]) of 21.4%.
`CCCCCCCC(=O)Nc1nc2[nH]c(CN3CCN(c4ccc([N+](=O)[O-])cc4)CC3)c(CN3CCN(c4ccc([N+](=O)[O-])cc4)CC3)c2c(=O)[nH]1` was tested, and the inhibition of growth at 10 µM (SK-BR-3 [1]) was 64.6%, the inhibition of growth at 10 µM (MCF7 [2]) was 12.6% and the inhibition of growth at 10 µM (HCT-116 [3]) was 27%.
`CCCCCCCC(=O)Nc1nc2[nH]cc(CN3CCCCC3)c2c(=O)[nH]1` gave a GI50 (MCF7 [6]) of 13.4 µM, a GI50 (SK-BR-3 [4]) of 15 µM and an inhibition of growth at 10 µM (SK-BR-3 [1]) of 77.1%. It also gave an inhibition of growth at 10 µM (MCF7 [2]) of 70.2%, an inhibition of growth at 10 µM (HCT-116 [3]) of 51.1% and a GI50 (HCT-116 [5]) of 14.9 µM.
In the case of `CCCCCCCC(=O)Nc1nc2[nH]c(CN3CCN(Cc4ccccc4F)CC3)c(CN3CCN(Cc4ccccc4F)CC3)c2c(=O)[nH]1`, the GI50 (MCF7 [6]) is reported as 4.2 µM, the GI50 (SK-BR-3 [4]) is reported as 3.73 µM and the inhibition of growth at 10 µM (SK-BR-3 [1]) is reported as 93.4%. It also gave an inhibition [7] of 23%, an inhibition of growth at 10 µM (MCF7 [2]) of 96.1% and an inhibition [8] of 59.8%. The IC50 [9] was 3.15 µM, the inhibition of growth at 10 µM (HCT-116 [3]) was 97.3% and the GI50 (HCT-116 [5]) was 1.89 µM.
